Experimental data from US8536216B2, “Compositions based on aminoacids” (Professional Dietetics S.R.L., priority 2000, dated 2013).
Where two headings read alike, the source gives them in different places.

Experiments:
[1] = human, in vivo
[2] = Amino acids plasma modifications induced by acute ingestion of the mixture
athletes = assay: Comparative study in athletes: bench press, squat Romano, maximal power on braked bicycle ergometer; format: in vivo, human
Text: The effects on energy balance of the an amino acids mixture according to the invention as above indicated were the subject of a comparative study with creatine, on a weight ratio (w/w), or with no treatment, on a large group of volunteers submitted to a rigid protocol of alimentation and training.

[3] = 15' after acute ingestion of the mixture according to the invention
[4] = 30' after acute ingestion of the mixture according to the invention
[5] = 60' after acute ingestion of the mixture according to the invention

Compound | Amino acid plasma level ([1]; 15 min) | Amino acid plasma level ([1]; 30 min) | Amino acid plasma level ([1]; 60 min) | Amino acid plasma level [2, 3] | Amino acid plasma level [2, 4] | Amino acid plasma level [2, 5] | Watt/Kg max (maximal power productive performance on a braked bicycle ergometer) (athletes; after one month of treatment and training, mixture 24 g/d, creatine 25 g/d) | Performances over basal and no treatment group (athletes; one month treatment and training)
N=C(N)NCCC[C@H](N)C(=O)O [Arginine] | 85 ± 15 | 97 ± 13 | 82 ± 16 |  |  |  |  | 
CC[C@H](C)[C@H](N)C(=O)O [Isoleucine] | 156 ± 24 | 162 ± 31 | 147 ± 32 |  |  |  |  | 
NCCCC[C@H](N)C(=O)O [Lysine] | 182 ± 17 | 194 ± 26 | 179 ± 18 |  |  |  |  | 
C[C@@H](O)[C@H](N)C(=O)O [Threonine] | 121 ± 15 | 137 ± 21 | 120 ± 16 |  |  |  |  | 
CC(C)[C@H](N)C(=O)O [Valine] | 256 ± 19 | 294 ± 32 | 249 ± 26 |  |  |  |  | 
CN(CC(=O)O)C(=N)N [creatine] |  |  |  |  |  |  | 9.8 ± 0.6 watt/kg max | significant improvements of performances

More lines, main results first:

Amino acid plasma level ([1]; 15 min) | Amino acid plasma level ([1]; 30 min) | Amino acid plasma level ([1]; 60 min) | Amino acid plasma level [2, 3] | Amino acid plasma level [2, 4] | Amino acid plasma level [2, 5] | Compound | Watt/Kg max (maximal power productive performance on a braked bicycle ergometer) (athletes; after one month of treatment and training, mixture 24 g/d, creatine 25 g/d) | Performances over basal and no treatment group (athletes; one month treatment and training)
54 ± 6 | 61 ± 8 | 49 ± 7 |  |  |  | N[C@@H](CS)C(=O)O [Cysteine] |  | 
 |  |  | 563 ± 69 | 606 ± 32 | 502 ± 43 | N[C@@H](CCC(=O)O)C(=O)O [Glutamate] |  | 
 |  |  | 42 ± 6 | 44 ± 7 | 41 ± 5 | N[C@@H](CCC(=O)O)C(=O)O [Glutamic acid] |  | 
68 ± 16 | 109 ± 19 | 71 ± 9 |  |  |  | CC(C)C[C@H](N)C(=O)O [Leucine] |  | 
30 ± 6 | 32 ± 9 | 27 ± 4 |  |  |  | CSCC[C@H](N)C(=O)O [Methionine] |  | 
56 ± 9 | 61 ± 10 | 55 ± 7 |  |  |  | N[C@@H](Cc1ccccc1)C(=O)O [Phenylalanine] |  | 
62 ± 9 | 65 ± 14 | 59 ± 7 |  |  |  | N[C@@H](Cc1ccc(O)cc1)C(=O)O [Tyrosine] |  | 
